The text below walks through data of US20120022083A1, “SMALL MOLECULE MODULATORS OF CELL ADHESION” (ADHEREX TECHNOLOGIES, INC., priority 2008, published 2012).

Data set [1] concerns retinal explants on substrate protein (Human N-cadherin-Fc or Laminin). As to the kind of experiment: Culture of retinal explants and quantification of neurite outgrowth. Conditions: embryonic day 8 chick retina explants, examined approximately 20 hours after plating. In kind it is cell-based, White Leghorn chick. The source says: Tissue culture dishes were coated with nitrocellulose and allowed to dry (Lagenaur and Lemmon, [citation?] 1987). Substrate protein (Human N-cadherin-Fc or Laminin) was spread across the central region of each dish. Retinal explant cultures were made according to a previously described procedure (Halfter, W. et al., Dev. Biol., 95:56-64, 1983; Drazba, J. and Lemmon, V., Dev. Biol., 138:82-93, 1990). In brief, embryonic day 8 (stage 32-34 according to Hamburger and Hamilton, [citation?] 1951) White Leghorn chick eyes were dissected and the retina was flattened with the photoreceptor side down onto black nitrocellulose filters that had previously been incubated in concanavalin A. The filter was then cut into strips perpendicular to the optic fissure. Strips were inverted onto substrate-coated culture dishes so that the gang lion cell layer was directly adjacent to the substratum. N-cadherin small molecule antagonists were diluted in the culture medium and added at the time of plating. Neurite outgrowth was examined at approximately 20 hours after plating.
Neurite outgrowth from retina explants was catalogued using a SPOT RT digital camera and image acquisition software. The length of the five longest neurites per explant were measured (Burden-Gulley, S. M. and Brady-Kalnay, S. M. J. Cell Biol., 144:1323-1336, 1999). To measure neurite density, the region of neurite outgrowth was outlined to define the region of interest and the neurites were highlighted using Metamorph software. Data from similar experimental conditions were combined, analyzed by Student's t test and plotted.

The target in data set [2] is T1, Ncad-Fc protein (chicken N-cadherin ectodomain fused to the Fc fragment of mouse IgG2b) (Gallus gallus, UniProt P10288).
T1 construct: chicken N-cadherin ectodomain fused to the Fc fragment of mouse IgG2b
T1 sequence (P10288 165-729 limits assumed): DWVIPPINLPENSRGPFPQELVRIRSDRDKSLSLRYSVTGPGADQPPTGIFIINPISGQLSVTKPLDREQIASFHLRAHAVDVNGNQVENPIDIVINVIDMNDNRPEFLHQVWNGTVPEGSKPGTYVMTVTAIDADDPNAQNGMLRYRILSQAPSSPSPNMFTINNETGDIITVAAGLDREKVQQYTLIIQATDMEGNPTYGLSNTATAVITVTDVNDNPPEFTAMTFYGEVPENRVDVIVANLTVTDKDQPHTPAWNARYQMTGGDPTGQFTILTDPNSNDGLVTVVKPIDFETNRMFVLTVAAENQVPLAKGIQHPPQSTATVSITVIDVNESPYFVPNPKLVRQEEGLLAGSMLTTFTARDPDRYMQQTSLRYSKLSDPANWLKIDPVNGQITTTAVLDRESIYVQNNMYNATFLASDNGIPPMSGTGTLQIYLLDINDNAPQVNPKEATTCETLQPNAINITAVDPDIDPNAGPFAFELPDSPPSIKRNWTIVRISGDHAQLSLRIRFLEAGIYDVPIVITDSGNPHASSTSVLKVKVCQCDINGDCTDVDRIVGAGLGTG
As to the kind of experiment: Ncad-Fc bead-bead aggregation assay. In kind it is biochemical. Conditions: N-cadherin coated Dynabeads, 30 minutes to 1 hour at 37° C. The protocol:
Compounds of the invention were assayed according to the following procedures.
(§1) 10 μl of magnetic Dynabeads® Protein A (Prod. No. 100.01) were pipetted into a 1.5 ml eppendorf tube and washed with 0.5 ml of PBS (1×), 0.1% Tween 20, and 2 mM EGTA using the Dynal MPC-S Magnetic Particle Concentrator. Supernatant was aspirated, the magnet was removed and beads were washed once more with same buffer using the Dynal MPC-S Magnetic Particle Concentrator. Following this supernatant was once again removed and the beads were resuspended in 10 μl of PBS (1×), 0.1% Tween 20, and 2 mM EGTA buffer.
(§2) An equal 10 ul volume of Ncad-Fc protein (0.25 mg/10 μl, chicken N-cadherin ectodomain fused to the Fc fragment of mouse IgG2b) or human Fc (Jackson Immunoresearch, concentration 2.3 mg/ml) suspended in PBS (1×), 0.1% Tween 20, 2 mM EGTA and 1% BSA (Sigma, Prod. No. A0281) was added and incubated for 1-2 hours at room temperature on the Vortex Genie 2, followed by three washes in 0.5 ml of the same buffer. The beads were then resuspended in 80 μl PBS (1×) plus 1% BSA (dilution 1/8) and kept on ice.
The aggregation assay was performed in duplicates in 12 well/6 mm slides (CEL-LINE/ERIE SCIENTIFIC CO. Prod. No. 10-103). Experimentation was conducted in eppendorf tubes containing […] of DMEM medium ([…] glucose, Gibco Prod. No. 21 885-025)+10% Fetal Calf Serum (FCS) containing an N-cadherin inhibitor or calcium chelator (EDTA, EGTA) with the addition of 4 μl of N-cadherin coated Dynabeads®. The resulting bead solutions were gently mixed on ice followed by 50 μl of solution deposited per well.
Slides were incubated for 30 minutes to 1 hour at 37° C. and 5% CO2. After incubation two images per well were recorded on an inverted microscope (Nikon Diaphot) at 20× magnification, with an 8 Volt illumination using a Nikon D100. Images were analyzed using the Bead Counting software program from Metamorph (Meta Imaging Series 6.2r6).
In this assay, in the absence of inhibitor, the beads bind to each other and aggregate due to dimerization of the N-cadherin molecules on the surfaces of the beads. Accordingly, compounds effective for disrupting N-cadherin-mediated cell adhesion can be identified on the basis of whether they disrupt bead-bead aggregation in this assay.

Data set [3] concerns the molecule itself. As to the kind of experiment: bead-bead aggregation assay, Ncad-Fc on Protein A Dynabeads, microscopy and bead counting. On the procedure:
as §1, §2
The aggregation assay was performed in duplicates in 12 well/6 mm slides (CEL-LINE/ERIE SCIENTIFIC CO. Prod. No. 10-103). […]

As for `CCc1nnc(-c2ccc(C(C)(C)C)cc2)[nH]1` [compound 1-1, 3-(4-Tert-Butylphenyl)-5-Ethyl-4H-[1,2,4]Triazole], in data set [1], the inhibit neurite outgrowth result is “inhibit neurite outgrowth”. Also, in data set [2], the “active in Ncad-Fc bead-bead aggregation assay (disrupt bead-bead aggregation)” value (shortened to “active … (disrupt bead-bead aggregation)”) is “active”.

As for `Cc1cccc(-c2nnc(C)[nH]2)c1` [compound 5-1, 3-Methyl-5-M-Tolyl-4H-[1,2,4]Triazole], the “active … (disrupt bead-bead aggregation)” value in data set [2] was “active”.

Consider `Cc1nnc(-c2ccccc2Cl)[nH]1` [compound 7-1, 3-(2-Chlorophenyl)-5-Methyl-4H-[1,2,4]Triazole], for which, in data set [2], the “active … (disrupt bead-bead aggregation)” value was “active”.

For the molecule `Cc1nnc(-c2cccc(Cl)c2)[nH]1` [compound 8-1, 3-(3-Chlorophenyl)-5-Methyl-4H-[1,2,4]Triazole], the “active … (disrupt bead-bead aggregation)” value in data set [2] is on record as “active”.

As to `Cc1nnc(-c2ccc(Cl)cc2)[nH]1` [compound 9-1, 3-(4-Chlorophenyl)-5-Methyl-4H-[1,2,4]Triazole], the “active … (disrupt bead-bead aggregation)” value in data set [2] was “active”.

With `Cc1nnc(Cc2ccccc2)[nH]1` [compound 10-1, 3-Benzyl-5-Methyl-4H-[1,2,4]Triazole], the “active … (disrupt bead-bead aggregation)” value in data set [2] is on record as “active”.

In the case of `COc1cccc(-c2nnc(C)[nH]2)c1` [compound 11-1, 3-(3-Methoxyphenyl)-5-Methyl-4H-[1,2,4]Triazole], the “active … (disrupt bead-bead aggregation)” value in data set [2] was “active”.

Regarding `COc1ccc(-c2nnc(C)[nH]2)cc1` [compound 12-1, 3-(4-Methoxyphenyl)-5-Methyl-4H-[1,2,4]Triazole], the “active … (disrupt bead-bead aggregation)” value in data set [2] was “active”.

As for `Cc1nnc(-c2ccc(Cl)c(Cl)c2)[nH]1` [compound 14-1, 3-(3,4-Dichlorophenyl)-5-Methyl-4H-[1,2,4]Triazole], the “active … (disrupt bead-bead aggregation)” value in data set [2] is “active”.

As for `CC(C)c1nnc(-c2ccc(C(C)(C)C)cc2)[nH]1` [compound 21-1, 3-(4-Tert-Butylphenyl)-5-Isopropyl-4H-[1,2,4]Triazole], in data set [1], the inhibit neurite outgrowth result is “inhibit neurite outgrowth”.

Take `CC(C)(C)c1ccc(-c2nnc(C3CC3)[nH]2)cc1` [compound 22-1, 3-(4-Tert-Butylphenyl)-5-Cyclopropyl-4H-[1,2,4]Triazole]: in data set [1], the inhibit neurite outgrowth result was “inhibit neurite outgrowth”.

For `CC(C)(C)c1ccc(-c2nnc(C3CCC3)[nH]2)cc1` [compound 25-1, 3-(4-Tert-Butylphenyl)-5-Cyclobutyl-4H-[1,2,4]Triazole], in data set [1], the inhibit neurite outgrowth entry was “inhibit neurite outgrowth”.

For the molecule `CC(C)(C)c1ccc(-c2nnc(Cc3ccccc3)[nH]2)cc1` [compound 26-1, 3-Benzyl-5-(4-Tert-Butylphenyl)-4H-[1,2,4]Triazole], the inhibit neurite outgrowth entry in data set [1] is on record as “inhibit neurite outgrowth”.

As for `CC(C)(C)c1ccc(-c2nnc(-c3cnccn3)[nH]2)cc1` [compound 28-1, 2-[5-(4-Tert-Butylphenyl)-4H-[1,2,4]Triazol-3-Yl]-Pyrazine], in data set [1], the inhibit neurite outgrowth entry was “inhibit neurite outgrowth”.

Turning to `Cn1nc(-c2ccc(C(C)(C)C)cc2)nc1S` [compound 46-1, 5-(4-Tert-Butylphenyl)-2-Methyl-2H-[1,2,4]Triazole-3-Thiol], in data set [1], the inhibit neurite outgrowth entry is listed as “inhibit neurite outgrowth”.

For the molecule `CC(C)(C)c1ccc(-c2nnc(N)[nH]2)cc1` [compound 50-1, 5-(4-Tert-Butylphenyl)-4H-[1,2,4]Triazol-3-Ylamine], the “active … (disrupt bead-bead aggregation)” value in data set [2] is on record as “active”.

On to `Cc1nnc(-c2ccc(C(C)(C)C)cc2)[nH]1` [compound 53-1, 3-(4-Tert-Butylphenyl)-5-Methyl-4H-[1,2,4]Triazole], for which the inhibit neurite outgrowth result in data set [1] is listed as “inhibit neurite outgrowth”. Moreover, the “active … (disrupt bead-bead aggregation)” value in data set [2] is on record as “active”.

With `CC(C)(C)c1ccc(-c2nnc(C(F)F)[nH]2)cc1` [compound 57-1, 3-(4-Tert-Butylphenyl)-5-Difluoromethyl-4H-[1,2,4]Triazole], the inhibit neurite outgrowth entry in data set [1] is listed as “inhibit neurite outgrowth”.

With `Cc1cnc(-c2ccc(C(C)(C)C)cc2)[nH]1` [compound 64-1, 2-(4-Tert-Butylphenyl)-5-Methyl-1H-Imidazole], the inhibit neurite outgrowth entry in data set [1] was “inhibit neurite outgrowth”.

With `Cc1nnc(-c2ccccn2)[nH]1` [compound 65-1, 2-(5-Methyl-4H-[1,2,4]Triazol-3-Yl)-Pyridine], in data set [2], the “active … (disrupt bead-bead aggregation)” value is “active”.

Regarding `Cc1nnc(-c2cccnc2)[nH]1` [compound 66-1, 3-(5-Methyl-4H-[1,2,4]Triazol-3-Yl)-Pyridine], the “active … (disrupt bead-bead aggregation)” value in data set [2] is “active”.

Take `Cc1nnc(-c2ccncc2)[nH]1` [compound 67-1, 4-(5-Methyl-4H-[1,2,4]Triazol-3-Yl)-Pyridine]: the “active … (disrupt bead-bead aggregation)” value in data set [2] is given as “active”.

In the case of `Cc1nnc(-c2cccs2)[nH]1` [compound 68-1, 3-Methyl-5-Thiophen-2-Yl-4H-[1,2,4]Triazole], in data set [2], the “active … (disrupt bead-bead aggregation)” value is on record as “active”.

As for `COc1ccc(-c2nnc(S)[nH]2)cc1` [compound 69-2], the inhibit neurite outgrowth entry in data set [1] was “inhibit neurite outgrowth”.

Take `Sc1nnc(-c2cccs2)[nH]1` [compound 69-4]: the inhibit neurite outgrowth result in data set [1] was “inhibit neurite outgrowth”.

B1: Ncad-Fc protein (chicken N-cadherin ectodomain fused to the Fc fragment of mouse IgG2b) (Fc fusion, UniProt P10288 165-729, looked up)
chain: DWVIPPINLPENSRGPFPQELVRIRSDRDKSLSLRYSVTGPGADQPPTGIFIINPISGQLSVTKPLDREQIASFHLRAHAVDVNGNQVENPIDIVINVIDMNDNRPEFLHQVWNGTVPEGSKPGTYVMTVTAIDADDPNAQNGMLRYRILSQAPSSPSPNMFTINNETGDIITVAAGLDREKVQQYTLIIQATDMEGNPTYGLSNTATAVITVTDVNDNPPEFTAMTFYGEVPENRVDVIVANLTVTDKDQPHTPAWNARYQMTGGDPTGQFTILTDPNSNDGLVTVVKPIDFETNRMFVLTVAAENQVPLAKGIQHPPQSTATVSITVIDVNESPYFVPNPKLVRQEEGLLAGSMLTTFTARDPDRYMQQTSLRYSKLSDPANWLKIDPVNGQITTTAVLDRESIYVQNNMYNATFLASDNGIPPMSGTGTLQIYLLDINDNAPQVNPKEATTCETLQPNAINITAVDPDIDPNAGPFAFELPDSPPSIKRNWTIVRISGDHAQLSLRIRFLEAGIYDVPIVITDSGNPHASSTSVLKVKVCQCDINGDCTDVDRIVGAGLGTG
notes: extracellular domain; Captured on magnetic Dynabeads Protein A for the bead-bead aggregation assay; also called N-cadherin coated Dynabeads; not shown: Fc fragment of mouse IgG2b
For B1, in data set [3], the binding result is recorded as “binds”.
